Values quoted from earlier work, collected in patent US20250325531A1, “TREATMENT OF SYSTOLIC DYSFUNCTION” (MyoKardia, Inc., priority 2024, published 2025).

Tested on: healthy volunteers / HFrEF
Conditions: high doses; correlated with increase in SET; cited from earlier work

With COC(=O)N1CCN(Cc2cccc(NC(=O)Nc3ccc(C)nc3)c2F)CC1 [omecamtiv mecarbil] as the compound, how does the “ischemia in healthy volunteers” value read?
The value was “resulted in ischemia”.
